Results reported in the supplement of paper PMC10627819.

Key:
S. aureus DSM 20231 [1] = experiment: fitness (endpoint OD595 vs no drug) (fraction); higher = more growth
How it was run: (§1)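 Volumes were 30 µl per well, or 55 µl for S. pneumoniae, in 384-well plates inoculated at OD595 0.01. Media were TSB, LB Lennox or CY at 37 °C, and OD595 was read every 30 min for 14 h with first-reading background subtraction. Fitness is the ratio of optical density at stationary-phase entry to the robust mean of no-drug controls. That ratio is capped at 1.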

B. subtilis 168 [2] = experiment: as above
How it was run: as §1

S. pneumoniae D39V [3] = experiment: as above
How it was run: as §1

S. aureus DSM 20231 [4] = experiment: Bliss interaction score (quartile over a dose matrix) (fitness difference); higher = more antagonism (negative = synergy)
How it was run: (§2)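 The Bliss score is observed minus expected fitness, where expected fitness is the product of the single-drug fitness values inferred from the combination data. Fitness is the OD595 at the onset of stationary phase over the plate's robust no-drug mean, capped at 1. Scores are summarised by quartiles over technical, biological and donor/recipient replicates.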

S. aureus Newman = experiment: as above
How it was run: as §2

B. subtilis 168 [5] = experiment: as above
How it was run: as §2

S. pneumoniae D39V [6] = experiment: as above
How it was run: as §2

[7] = first compound 0.125 µg/mL, partner 1.25 µg/mL
[8] = first compound 0.125 µg/mL, partner 2.5 µg/mL
[9] = first compound 0.125 µg/mL, partner 5 µg/mL
[10] = first compound 0.25 µg/mL, partner 1.25 µg/mL
[11] = first compound 0.25 µg/mL, partner 2.5 µg/mL
[12] = first compound 0.25 µg/mL, partner 5 µg/mL
[13] = first compound 0.5 µg/mL, partner 1.25 µg/mL
[14] = first compound 0.5 µg/mL, partner 2.5 µg/mL
[15] = first compound 0.5 µg/mL, partner 5 µg/mL
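Wherever Bliss interaction score (quartile over a dose matrix) is given: first quartile when negative (synergy) and third quartile when positive (antagonism).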

CC(=O)NC[C@H]1CN(c2ccc(N3CCOCC3)c(F)c2)C(=O)O1 [Linezolid] + C[n+]1ccc(-c2cc[n+](C)cc2)cc1 [Paraquat]
fitness (S. aureus DSM 20231 [1]; [7]): 0.812
fitness (S. aureus DSM 20231 [1]; [8]): 0.768
fitness (S. aureus DSM 20231 [1]; [9]): 0.845
fitness (S. aureus DSM 20231 [1]; [10]): 0.6
fitness (S. aureus DSM 20231 [1]; [11]): 0.63
fitness (S. aureus DSM 20231 [1]; [12]): 0.654
fitness (S. aureus DSM 20231 [1]; [13]): 0.234
fitness (S. aureus DSM 20231 [1]; [14]): 0.295
fitness (S. aureus DSM 20231 [1]; [15]): 0.323
fitness (S. aureus DSM 20231 [1]; first compound 1 µg/mL, partner 1.25 µg/mL, one replicate): 0.0626
fitness (S. aureus DSM 20231 [1]; first compound 1 µg/mL, partner 2.5 µg/mL, one replicate): 0.0623
fitness (S. aureus DSM 20231 [1]; first compound 1 µg/mL, partner 5 µg/mL, one replicate): 0.0727
fitness (B. subtilis 168 [2]; first compound 0.0625 µg/mL, partner 1.25 µg/mL, one replicate): 0.876
fitness (B. subtilis 168 [2]; first compound 0.0625 µg/mL, partner 2.5 µg/mL, one replicate): 0.876
fitness (B. subtilis 168 [2]; first compound 0.0625 µg/mL, partner 5 µg/mL, one replicate): 0.749
fitness (B. subtilis 168 [2]; [7]): 0.562
fitness (B. subtilis 168 [2]; [8]): 0.521
fitness (B. subtilis 168 [2]; [9]): 0.531
fitness (B. subtilis 168 [2]; [10]): 0.068
fitness (B. subtilis 168 [2]; [11]): 0.0848
fitness (B. subtilis 168 [2]; [12]): 0.101
fitness (B. subtilis 168 [2]; [13]): 0.0393
fitness (B. subtilis 168 [2]; [14]): 0.0301
fitness (B. subtilis 168 [2]; [15]): 0.0453
fitness (S. pneumoniae D39V [3]; first compound 0.105 µg/mL, partner 1.5 µg/mL): 0.876
fitness (S. pneumoniae D39V [3]; first compound 0.105 µg/mL, partner 3 µg/mL): 0.836
fitness (S. pneumoniae D39V [3]; first compound 0.105 µg/mL, partner 6 µg/mL): 0.826
fitness (S. pneumoniae D39V [3]; first compound 0.2 µg/mL, partner 1.5 µg/mL, one replicate): 0.883
fitness (S. pneumoniae D39V [3]; first compound 0.2 µg/mL, partner 3 µg/mL, one replicate): 0.921
fitness (S. pneumoniae D39V [3]; first compound 0.2 µg/mL, partner 6 µg/mL, one replicate): 0.93
fitness (S. pneumoniae D39V [3]; first compound 0.21 µg/mL, partner 1.5 µg/mL): 0.76
fitness (S. pneumoniae D39V [3]; first compound 0.21 µg/mL, partner 3 µg/mL): 0.743
fitness (S. pneumoniae D39V [3]; first compound 0.21 µg/mL, partner 6 µg/mL): 0.711
fitness (S. pneumoniae D39V [3]; first compound 0.4 µg/mL, partner 1.5 µg/mL, one replicate): 0.822
fitness (S. pneumoniae D39V [3]; first compound 0.4 µg/mL, partner 3 µg/mL, one replicate): 0.853
fitness (S. pneumoniae D39V [3]; first compound 0.4 µg/mL, partner 6 µg/mL, one replicate): 0.874
fitness (S. pneumoniae D39V [3]; first compound 0.42 µg/mL, partner 1.5 µg/mL): 0.598
fitness (S. pneumoniae D39V [3]; first compound 0.42 µg/mL, partner 3 µg/mL): 0.565
fitness (S. pneumoniae D39V [3]; first compound 0.42 µg/mL, partner 6 µg/mL): 0.565
fitness (S. pneumoniae D39V [3]; first compound 0.8 µg/mL, partner 1.5 µg/mL, one replicate): 0.621
fitness (S. pneumoniae D39V [3]; first compound 0.8 µg/mL, partner 3 µg/mL, one replicate): 0.626
fitness (S. pneumoniae D39V [3]; first compound 0.8 µg/mL, partner 6 µg/mL, one replicate): 0.727
Bliss interaction score (S. aureus DSM 20231 [4]): 0.0716
Bliss interaction score (S. aureus Newman): -0.0403
Bliss interaction score (B. subtilis 168 [5]): 0.0297
Bliss interaction score (S. pneumoniae D39V [6]): 0.109
